Test results reported in patent US9107415B2, “2-(substituted-phenyl)-cyclopentane-1,3-dione compounds, and derivatives thereof” (Syngenta Limited, priority 2011, dated 2015).

Key:
Type in all cases: in vivo
[1] = tested on: Alopecurus myosuroides (ALOMY); test: Biological Example 4A (previously-formulated compounds) post-emergence herbicidal activity on grassy weeds; details: 14 DAA, EC formulation, mean of two
Experimental: (§1) Seeds of a variety of test species are sown in standard soil in pots. After cultivation for 14 days under controlled conditions in a glasshouse (at 22/16°C., day/night; 16 hours light; 65% humidity), the plants are sprayed with the test compounds. The test plants are then grown on under controlled conditions in the glasshouse (at 22/16°C., day/night; 16 hours light; 65% humidity) and are watered twice daily. After 14 days the test is evaluated visually (100%=total damage to plant; 0%=no damage to plant). Post-emergence herbicidal activity (phytotoxicity) data, on certain grassy monocotyledonous weeds and cereal crops in a glasshouse, are measured 14 days after application of the herbicide (14 DAA), inter alia for post-emergence application rates of 30 or 60 g/ha of the test herbicide, with or without 50 g/ha of cloquintocet-mexyl safener applied at substantially the same time as the herbicide.
(§2) Herbicidal activity (phytotoxicity) is evaluated visually, and an assessed percentage phytotoxicity score is given for each herbicidal application on each plant species (with 100%=total damage to plant; 0%=no damage to plant). Two repetitions are made for each experiment and the mean herbicidal activity (phytotoxicity) data is reported.
(§3) Biological Example 4A is used on previously-formulated compounds, typically compounds previously formulated as an emulsifiable concentrates (EC), wherein the EC contains the herbicidal compound under test dissolved in one or more organic solvents, and wherein the EC also contains one or more surfactants or emulsifiers. In the test method, the EC containing the herbicide (plus a cloquintocet-mexyl formulation if this is also present) is generally diluted with water to form an emulsion, and the resulting emulsion is sprayed onto the emerged weed and/or crop plants.
(§4) For the testing of Compounds A-5 and A-6, each of these compounds was separately formulated into an emulsifiable concentrate containing 10% w/w of the herbicidal compound, 9% w/w of castor oil ethoxylate (an emulsifier, present as Emulsogen™EL360), 6% w/w of calcium dodecylbenzenesulfonate (linear) (an emulsifier, present as Nansa™EVM 63B), 3% w/w of tristyrylphenol ethoxylate having 16 moles of ethoxylation per mole of molecule (an emulsifier, present as Soprophor™BSU), 10% w/w of benzyl benzoate (as solvent), 20% w/w of 1-methyl-2-pyrrolidone (as solvent), and the remainder of N-octyl-2-pyrrolidone (as solvent). The solvents and surfactants/emulsifiers were first mixed together, to form a “blank” EC, and the herbicidal compound was then added to and dissolved in this solvent and emulsifier mixture to prepare the emulsifiable concentrate, to give an EC formulation/composition containing approximately 100 g/L of active herbicidal compound.
(§5) In the tests of Compounds A-5 and A-6, the cloquintocet-mexyl was pre-formulated as a formulation/composition containing 10% w/w cloquintocet-mexyl, 6% w/w Emulsogen™ EL360 (as emulsifier), 4% w/w Nansa™EVM 63B (as wetting agent), 1% w/w Drapex™39 (epoxidised soybean oil), 20% w/w 1-methyl-2-pyrrolidone (as solvent), and the remainder as Solvesso™200ND (a mixture of heavy aromatic hydrocarbons, as a solvent).
(§6) Test plants: Avena fatua (AVEFA), Lolium multiflorum (LOLMU), Setaria viridis (SETVI), Poa annua (POAAN), Alopecurus myosuroides (ALOMY). All five of these are grassy monocotyledonous weeds.

[2] = tested on: Avena fatua (AVEFA); test: as above; details: 14 DAA, EC formulation, mean of two
Experimental: as §1, §2, §3, §4, §5, §6

[3] = tested on: Poa annua (POAAN); test: as above; details: 14 DAA, EC formulation, mean of two
Experimental: as §1, §2, §3, §4, §5, §6

[4] = tested on: Setaria viridis (SETVI); test: as above; details: 14 DAA, EC formulation, mean of two
Experimental: as §1, §2, §3, §4, §5, §6

[5] = tested on: Lolium multiflorum (LOLMU); test: as above; details: 14 DAA, EC formulation, mean of two
Experimental: as §1, §2, §3, §4, §5, §6

[6] = tested on: Winter Wheat “Hereward”; test: Biological Example 4A post-emergence phytotoxicity on cereal crops; details: 14 DAA, EC formulation, mean of two
Experimental: as §1, §2, §3, §4, §5

[7] = tested on: Spring Barley “Harrington”; test: as above; details: 14 DAA, EC formulation, mean of two
Experimental: as §1, §2, §3, §4, §5

[8] = tested on: Winter Barley “Suzuka”; test: as above; details: 14 DAA, EC formulation, mean of two
Experimental: as §1, §2, §3, §4, §5

[9] = tested on: Spring Wheat “Teal”; test: as above; details: 14 DAA, EC formulation, mean of two
Experimental: as §1, §2, §3, §4, §5

[10] = tested on: Alopecurus myosuroides (ALOMY); test: Biological Example 1 glasshouse screen, post-emergence herbicidal activity; details: 312 h, application rate 250 g/ha, evaluated after 13 days, read-out: ALOMY percentage phytotoxicity
How it was run: (§7)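 Read-out: visual percentage phytotoxicity at 13 days, 0% no damage to 100% total damage. Spray solution of unformulated compound in 50:50 acetone/water plus 0.5% Tween 20, applied to potted plants one day after sowing (pre) or after 8 days' growth (post).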

[11] = tested on: Echinochloa crus-galli (ECHCG); test: as above; details: 312 h, application rate 250 g/ha, evaluated after 13 days, read-out: ECHCG percentage phytotoxicity
How it was run: as §7

[12] = tested on: Lolium perenne (LOLPE); test: as above; details: 312 h, application rate 250 g/ha, evaluated after 13 days, read-out: LOLPE percentage phytotoxicity
How it was run: (§8)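 Pots in a glasshouse (24/16°C day/night, 14 h light, 65% humidity) were sprayed one day after sowing (pre-emergence) or after 8 days (post-emergence), using acetone/water (50:50) with 0.5% Tween 20. Phytotoxicity was scored visually as % damage (0-100) 13 days after application.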

[13] = tested on: Avena fatua (AVEFA); test: as above; details: 312 h, application rate 250 g/ha, evaluated after 13 days, read-out: AVEFA percentage phytotoxicity
How it was run: as §8

[14] = 30 g/ha, cloquintocet-mexyl 0 g/ha
[15] = 30 g/ha, cloquintocet-mexyl 50 g/ha
[16] = 60 g/ha, cloquintocet-mexyl 0 g/ha
[17] = 60 g/ha, cloquintocet-mexyl 50 g/ha

SMILES: CC#Cc1cc(C)c(C2=C(O)C[C@H](Cc3ccccn3)C2=O)c(C)c1 [Compound A-5]
- ALOMY % phytotoxicity [1, 14]: 58%
- ALOMY % phytotoxicity [1, 15]: 63%
- ALOMY % phytotoxicity [1, 16]: 93%
- ALOMY % phytotoxicity [1, 17]: 98%
- AVEFA % phytotoxicity [2, 14]: 58%
- AVEFA % phytotoxicity [2, 15]: 23%
- AVEFA % phytotoxicity [2, 16]: 83%
- AVEFA % phytotoxicity [2, 17]: 68%
- POAAN % phytotoxicity [3, 14]: 0%
- POAAN % phytotoxicity [3, 15]: 13%
- POAAN % phytotoxicity [3, 16]: 18%
- POAAN % phytotoxicity [3, 17]: 5%
- SETVI % phytotoxicity [4, 14]: 80%
- SETVI % phytotoxicity [4, 15]: 85%
- SETVI % phytotoxicity [4, 16]: 98%
- SETVI % phytotoxicity [4, 17]: 95%
- LOLMU % phytotoxicity [5, 14]: 93%
- LOLMU % phytotoxicity [5, 15]: 68%
- LOLMU % phytotoxicity [5, 16]: 95%
- LOLMU % phytotoxicity [5, 17]: 99%
- Winter Wheat “Hereward” phytotoxicity (%) [6, 14]: 40%
- Winter Wheat “Hereward” phytotoxicity (%) [6, 15]: 0%
- Winter Wheat “Hereward” phytotoxicity (%) [6, 16]: 53%
- Winter Wheat “Hereward” phytotoxicity (%) [6, 17]: 0%
- Spring Barley “Harrington” phytotoxicity (%) [7, 14]: 73%
- Spring Barley “Harrington” phytotoxicity (%) [7, 15]: 3%
- Spring Barley “Harrington” phytotoxicity (%) [7, 16]: 88%
- Spring Barley “Harrington” phytotoxicity (%) [7, 17]: 18%
- Winter Barley “Suzuka” phytotoxicity (%) [8, 14]: 33%
- Winter Barley “Suzuka” phytotoxicity (%) [8, 15]: 0%
- Winter Barley “Suzuka” phytotoxicity (%) [8, 16]: 65%
- Winter Barley “Suzuka” phytotoxicity (%) [8, 17]: 0%
- Spring Wheat “Teal” phytotoxicity (%) [9, 14]: 43%
- Spring Wheat “Teal” phytotoxicity (%) [9, 15]: 0%
- Spring Wheat “Teal” phytotoxicity (%) [9, 16]: 80%
- Spring Wheat “Teal” phytotoxicity (%) [9, 17]: 0%
- pest or weed control at 250 g/ha [10]: 80%
- pest or weed control at 250 g/ha [11]: 90%
- pest or weed control at 250 g/ha [12]: 80%
- pest or weed control at 250 g/ha [13]: 90%
